Common to all, as to format: cell-based
For one test, the target named is T1, human TLR8 (Homo sapiens, UniProt Q9NR97).
T1 construct: host or cells: HEK-Blue cells
T1 sequence (Q9NR97 27-1041): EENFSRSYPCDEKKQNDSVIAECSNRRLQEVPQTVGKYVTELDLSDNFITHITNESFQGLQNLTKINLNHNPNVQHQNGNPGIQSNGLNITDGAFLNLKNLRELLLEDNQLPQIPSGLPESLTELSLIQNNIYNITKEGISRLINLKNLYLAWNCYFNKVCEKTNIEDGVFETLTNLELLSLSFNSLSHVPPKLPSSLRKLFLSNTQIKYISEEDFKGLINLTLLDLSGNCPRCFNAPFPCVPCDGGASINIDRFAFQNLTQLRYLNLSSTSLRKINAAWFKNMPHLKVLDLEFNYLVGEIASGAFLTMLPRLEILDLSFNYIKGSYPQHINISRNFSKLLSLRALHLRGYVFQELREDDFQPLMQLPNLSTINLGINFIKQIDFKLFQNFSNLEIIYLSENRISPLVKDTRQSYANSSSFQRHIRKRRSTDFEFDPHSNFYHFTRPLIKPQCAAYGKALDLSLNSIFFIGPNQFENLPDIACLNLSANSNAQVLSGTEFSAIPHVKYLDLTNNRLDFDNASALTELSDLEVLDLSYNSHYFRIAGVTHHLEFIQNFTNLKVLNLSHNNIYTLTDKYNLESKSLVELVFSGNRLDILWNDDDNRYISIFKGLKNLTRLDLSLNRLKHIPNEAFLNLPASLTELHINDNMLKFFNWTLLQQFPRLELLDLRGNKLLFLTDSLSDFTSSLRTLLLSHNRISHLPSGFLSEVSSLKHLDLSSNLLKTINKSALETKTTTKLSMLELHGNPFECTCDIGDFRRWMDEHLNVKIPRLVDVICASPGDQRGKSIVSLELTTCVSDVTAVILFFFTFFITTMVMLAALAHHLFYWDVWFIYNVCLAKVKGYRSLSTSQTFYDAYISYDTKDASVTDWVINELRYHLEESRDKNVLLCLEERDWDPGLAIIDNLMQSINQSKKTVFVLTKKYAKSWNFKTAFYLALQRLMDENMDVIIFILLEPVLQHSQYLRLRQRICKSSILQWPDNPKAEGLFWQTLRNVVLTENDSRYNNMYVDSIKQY
Briefly: TLR8 inhibition reporter assay (HEK-Blue SEAP). As to conditions: cells overexpressing human TLR8, SEAP reporter, stimulated with R848 15.9 μM, 22 hour incubation. As for the experimental part:
(§1) TLR7/8/9 Inhibition Reporter Assays
(§2) […] (Invivogen) overexpressing human TLR7, TLR8 or TLR9 receptors were used for screening inhibitors of these receptors using an inducible SEAP (secreted embryonic alkaline phosphatase) reporter gene under the control of the IFN-β minimal promoter fused to five NF-κB and AP-1-binding sites. Briefly, cells are seeded into Greiner 384 well plates (15000 cells per well for TLR7, 20,000 for TLR8 and 25,000 for TLR9) and then treated with test compounds in DMSO to yield a final dose response concentration range of 0.05 nM-50 μM. After a 30 minute compound pre-treatment at room temperature, the cells are then stimulated with a TLR7 ligand (gardiquimod at a final concentration of 7.5 μM). TLR8 ligand (R848 at a final concentration of 15.9 μM) or TLR9 ligand (ODN2006 at a final concentration of 5 nM) to activate NF-κB and AP-1 which induce the production of SEAP. After a 22 hour incubation at 37° C., 5% CO2, SEAP levels are determined with the addition of HEK-Blue™ Detection reagent (Invivogen), a cell culture medium that allows for detection of SEAP, according to manufacturer's specifications. The percent inhibition is determined as the % reduction in the HEK-Blue signal present in wells treated with agonist plus DMSO alone compared to wells treated with a known inhibitor.
Background: In a reporter assay the amount or activity of a reporter protein is the signal.

The next test concerns the target T2, human TLR9 (Homo sapiens, UniProt Q9NR96).
T2 construct: host or cells: HEK-Blue cells
T2 sequence (Q9NR96 26-1032): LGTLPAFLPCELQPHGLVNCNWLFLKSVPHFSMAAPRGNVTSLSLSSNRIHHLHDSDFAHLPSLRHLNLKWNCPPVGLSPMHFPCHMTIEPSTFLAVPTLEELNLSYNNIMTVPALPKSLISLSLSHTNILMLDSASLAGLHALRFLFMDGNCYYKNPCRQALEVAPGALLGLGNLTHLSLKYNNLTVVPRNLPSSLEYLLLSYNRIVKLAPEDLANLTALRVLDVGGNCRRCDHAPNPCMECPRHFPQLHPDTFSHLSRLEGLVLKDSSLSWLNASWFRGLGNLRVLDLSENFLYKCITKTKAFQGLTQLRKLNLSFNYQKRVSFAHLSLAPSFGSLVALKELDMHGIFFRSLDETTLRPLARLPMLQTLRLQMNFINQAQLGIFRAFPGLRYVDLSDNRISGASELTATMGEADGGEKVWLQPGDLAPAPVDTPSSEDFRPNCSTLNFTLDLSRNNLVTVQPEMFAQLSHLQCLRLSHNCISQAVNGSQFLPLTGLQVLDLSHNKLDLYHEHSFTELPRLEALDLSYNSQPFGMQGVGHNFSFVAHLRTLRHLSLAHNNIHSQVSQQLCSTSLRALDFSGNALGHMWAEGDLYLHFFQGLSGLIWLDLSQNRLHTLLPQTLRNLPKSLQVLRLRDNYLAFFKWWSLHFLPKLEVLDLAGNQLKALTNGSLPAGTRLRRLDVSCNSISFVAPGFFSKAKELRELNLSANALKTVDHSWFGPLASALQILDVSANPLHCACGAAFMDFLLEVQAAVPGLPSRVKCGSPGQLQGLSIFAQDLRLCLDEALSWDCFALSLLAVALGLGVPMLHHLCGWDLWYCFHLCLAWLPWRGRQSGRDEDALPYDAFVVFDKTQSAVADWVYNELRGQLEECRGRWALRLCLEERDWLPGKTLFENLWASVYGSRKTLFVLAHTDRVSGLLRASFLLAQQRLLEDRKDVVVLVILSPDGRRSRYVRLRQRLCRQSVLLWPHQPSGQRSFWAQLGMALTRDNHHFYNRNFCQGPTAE
Briefly: TLR9 inhibition reporter assay (HEK-Blue SEAP). As to conditions: cells overexpressing human TLR9, SEAP reporter, stimulated with ODN2006 5 nM, 22 hour incubation. As for the experimental part:
as §1, §2

The target of the next test is T3, human TLR7 (Homo sapiens, UniProt Q9NYK1).
T3 construct: host or cells: HEK-Blue cells
T3 sequence (Q9NYK1 27-1049): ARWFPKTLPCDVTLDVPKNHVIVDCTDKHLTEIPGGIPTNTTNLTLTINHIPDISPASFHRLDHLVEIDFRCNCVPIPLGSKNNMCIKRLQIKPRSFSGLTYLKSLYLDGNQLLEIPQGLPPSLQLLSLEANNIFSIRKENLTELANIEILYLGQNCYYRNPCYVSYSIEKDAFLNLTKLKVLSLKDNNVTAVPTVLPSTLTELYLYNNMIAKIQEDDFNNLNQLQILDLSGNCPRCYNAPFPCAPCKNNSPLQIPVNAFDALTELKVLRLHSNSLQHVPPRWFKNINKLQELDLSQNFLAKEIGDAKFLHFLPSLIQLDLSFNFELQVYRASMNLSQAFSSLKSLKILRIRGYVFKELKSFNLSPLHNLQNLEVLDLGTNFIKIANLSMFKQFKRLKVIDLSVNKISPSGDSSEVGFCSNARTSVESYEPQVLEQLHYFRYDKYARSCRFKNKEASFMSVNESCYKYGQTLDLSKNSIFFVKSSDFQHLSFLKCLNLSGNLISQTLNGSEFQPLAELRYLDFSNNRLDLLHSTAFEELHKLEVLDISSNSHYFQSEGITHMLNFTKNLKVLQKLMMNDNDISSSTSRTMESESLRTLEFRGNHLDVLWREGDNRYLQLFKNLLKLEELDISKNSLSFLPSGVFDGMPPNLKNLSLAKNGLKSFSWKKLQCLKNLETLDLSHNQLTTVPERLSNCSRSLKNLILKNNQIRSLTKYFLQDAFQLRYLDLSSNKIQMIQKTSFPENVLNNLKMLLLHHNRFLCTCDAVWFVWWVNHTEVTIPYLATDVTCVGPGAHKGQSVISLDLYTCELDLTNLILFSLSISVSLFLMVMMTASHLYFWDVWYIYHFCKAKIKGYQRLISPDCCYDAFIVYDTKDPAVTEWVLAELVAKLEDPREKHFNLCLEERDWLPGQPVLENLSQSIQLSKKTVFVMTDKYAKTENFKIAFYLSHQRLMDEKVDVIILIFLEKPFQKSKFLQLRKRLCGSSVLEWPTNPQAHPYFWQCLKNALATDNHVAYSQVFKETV
In words: TLR7 inhibition reporter assay (HEK-Blue SEAP). The conditions noted are these: cells overexpressing human TLR7, SEAP reporter, stimulated with gardiquimod 7.5 μM, 22 hour incubation. As for the experimental part:
as §1, §2

By IC50 is commonly meant the midpoint of a concentration-inhibition curve. A lower IC50 goes with inhibition by little substance. Take `CCc1c(-c2ccc(OC)c(OC)c2)[nH]c2nnc(C3CCNCC3)cc12` [Example 1, 6-(3,4-dimethoxyphenyl)-5-ethyl-3-(piperidin-4-yl)-7H-pyrrolo[2,3-c]pyridazine]: the IC50 is 1000 to 50000 nM on human TLR8, 100 to 1000 nM at human TLR9 and 100 to 1000 nM at human TLR7.

`CCc1c(-c2ccc(OC)c(OC)c2)[nH]c2nnc(C3CCN(C4CCN(C(C)C)CC4)CC3)cc12` [Example 2, 6-(3,4-dimethoxyphenyl)-5-ethyl-3-(1′-isopropyl-[1,4′-bipiperidin]-4-yl)-7H-pyrrolo[2,3-c]pyridazine]: the IC50 at human TLR8, against human TLR9 and at human TLR7 was 100 to 1000 nM in each case.

Regarding `CCc1c(-c2ccc(OC)c(OC)c2)[nH]c2ncc(C3CCNCC3)nc12` [Example 3, 6-(3,4-dimethoxyphenyl)-7-ethyl-2-(piperidin-4-yl)-5H-pyrrolo[2,3-b]pyrazine], the IC50 against human TLR8, against human TLR9 and on human TLR7 was 100 to 1000 nM throughout.

With `CCc1c(-c2ccc(OC)c(OC)c2)[nH]c2ncc(C3CCN(C(=O)CN(C)C)CC3)nc12` [Example 4, 1-(4-(6-(3,4-dimethoxypbenyl)-7-ethyl-5H-pyrrolo[2,3-b]pyrazin-2-yl)piperidin-1-yl)-2-(dimethylamino)ethanone], the IC50 against human TLR8 lay in the range of 100 to 1000 nM; at human TLR9, 1000 to 50000 nM; on human TLR7 it was 100 to 1000 nM.

As for `CCc1c(-c2ccc(OC)c(OC)c2)[nH]c2ncc(C3CCN(C4CCN(C(C)C)CC4)CC3)nc12` [Example 5, 6-(3,4-ditnethoxyphenyl)-7-ethyl-2-(1′-isopropyl-[1,4′-bipiperidin]-4-yl)-5H-pyrrolo[2,3-b]pyrazine], the IC50 at human TLR8 was 100 to 1000 nM; against human TLR9, 100 to 1000 nM; on human TLR7, below 100 nM.

Take `COc1ccc(-c2[nH]c3cnc(C4CCN(C5CCN(CC(C)C)CC5)CC4)nc3c2C)cc1OC` [Example 6, 6-(3,4-dimethoxyphenyl)-2-(1′-isobutyl-[1,4′-bipiperidin]-4-yl)-7-methyl-5H-pyrrolo[3,2-d]pyrimidine]: the IC50 on human TLR8, against human TLR9 and against human TLR7 was 100 to 1000 nM each time.

As for `Cc1cc(-c2[nH]c3cnc(C4CCNCC4)nc3c2C(C)C)cn(C)c1=O` [Example 7, 5-(7-isopropyl-2-(piperidin-4-yl)-5H-pyrrolo[3,2-d]pyrimidin-6-yl)-1,3-dimethylpyridin-2(1H)-one], the IC50 is 100 to 1000 nM on human TLR8, 1000 to 50000 nM against human TLR9 and below 100 nM at human TLR7.

On to `Cc1cc(-c2[nH]c3cnc(C4CCN(C5COC5)CC4)nc3c2C(C)C)cn(C)c1=O` [Example 8, 5-(7-isopropyl-2-(1-(oxetan-3-yl)piperidin-4-yl)-5H-pyrrolo[3,2-d]pyrimidin-6-yl)-1,3-dimethylpyridin-2(1H)-one], for which the IC50 at human TLR8 was below 100 nM; against human TLR9, 1000 to 50000 nM; at human TLR7, below 100 nM.

Consider `CNC(=O)CN1CCC(c2ncc3[nH]c(-c4cn5ncnc5c(C)c4C)c(C(C)C)c3n2)CC1` [Example 9, 2-(4-(6-(7,8-dimethyl-[1,2,4]triazolo[1,5-a]pyridin-6-yl)-7-isopropyl-5H-pyrrolo[3,2-d]pyrimidin-2-yl)piperidin-1-yl)-N-methylacetamide], for which the results for the IC50 against human TLR8, against human TLR9 and at human TLR7 were below 100 nM, 1000 to 50000 nM and below 100 nM, respectively.

On to `Cc1c(-c2[nH]c3cnc(C4CCN(CC(=O)N(C)C)CC4)nc3c2C(C)C)cn2ncnc2c1C` [Example 10, 2-(4-(6-(7,8-dimethyl-[1,2,4]triazolo[1,5-a]pyrimidin-6-yl)-7-isopropyl-5H-pyrrolo[3,2-d]pyrimidin-2-yl)piperidin-1-yl)-N,N-dimethylacetantide], for which the figures for the IC50 against human TLR8, against human TLR9 and at human TLR7 were below 100 nM, 1000 to 50000 nM and below 100 nM, respectively.

Consider `COc1cc(-c2[nH]c3cnc(C4CCN(C(=O)CN(C)C)CC4)nc3c2C(C)C)cn2ncnc12` [Example 11, 2-(dirnethylamino)-1-(4-(7-isopropyl-6-(8-methoxy-[1,2,4]triazolo[1,5-a]pyridin-6-yl)-5H-pyrrolo[3,2-d]pyrimidin-2-yl)piperidin-1-yl)ethan-1-one], for which the values for the IC50 on human TLR8, against human TLR9 and against human TLR7 were below 100 nM, 1000 to 50000 nM and below 100 nM, respectively.

The values are drawn from US11299501B2 (BRISTOL-MYERS SQUIBB COMPANY, priority 2017, dated 2022).
